pIC50: −log10 of the molar value.
System: Human leukemia HL-60 cells endogenously expressing BLT1 and BLT2 receptors
Assay: Ca2+ flux assay for LTB4 antagonist assay (HL-60 FLIPR)
Type: cell-based
Settings: retinoic acid induced HL-60 cells, inhibition of LTB4-induced Ca2+ flux, 30 min preincubation; read-out: LTB4 antagonism (HL-60 FLIPR)
Procedure: Assay of Compounds for Inhibition of LTB4 Activity
Ca^2+Flux Assay for LTB4 Antagonist Assay
Human leukemia HL-60 cells endogenously expressing BLT1 and BLT2 receptors were cultured in RPMI-1640 medium supplemented with 20% fetal bovine serum, 2 mM glutamine, 100 U/ml penicillin and 100 ug/ml streptomycin.
Seventy two hours prior to experiment cells are counted using ViaCount reagent, centrifuged and resuspended at 2.0×10^5 cells/ml density with the complete growth media containing 1 μM Retinoic Acid (Sigma).
On a day of the experiment loading buffer (Calcium-3 Assay Kit, Molecular Devices) was prepared by dissolving the contents of one vial (Express Kit) into 500 ml Hank's Balanced Salt Solution containing 20 mM HEPES and 5 mM probenecid. Equal volume of the loading buffer was mixed with the replacement buffer (Hank's Balanced Salt Solution containing 20 mM HEPES, 0.05% BSA and 5 mM probenecid). Retinoic Acid induced HL-60 cells were counted using ViaCount reagent, centrifuged and resuspended at 2.0×10^6 cells/ml density with the loading buffer/replacement buffer, dispensed into 384 well black/clear microplates (Falcon) (25 μl/well) and placed in a 37° C./5% CO2 incubator for 1 hour.
During the incubation, test compounds were prepared at 6× the desired concentration in HBSS/20 mM HEPES/0.05% BSA as well as LTB4 (Biomol) was prepared at 2.2× concentration in HBSS/20 mM HEPES/0.5% BSA buffer.
After the incubation, both the cell and compound plates were brought to the FLIPR and 5 μl of the diluted compounds were transferred to the cell plates by the FLIPR. Plates were then incubated for 30 min at room temperature. After the ½ hour incubation, plates were returned to the FLIPR and 25 μl of 2.2×LTB4 was added to the cell plates. During the assay, fluorescence readings were taken simultaneously from all 384 wells of the cell plate every 1.5 seconds. Five readings were taken to establish a stable baseline, then 25 μl (LTB4) of sample was rapidly and simultaneously added to each well of the cell plate. The fluorescence was continuously monitored before, during and after sample addition for a total elapsed time of 100 seconds. Responses (increase in peak fluorescence) in each well following agonist addition was determined. The initial fluorescence reading from each well, prior to ligand stimulation, was used a zero baseline value for the data from that well. The responses are expressed as % inhibition of the neutral control (neural control: wells that received buffer plus DMSO but no test compound).

Compound	pIC50
COCc1cc(OCCCCCCc2cccc(OCCCC(=O)O)c2CCC(=O)O)cc(-c2ccccc2)c1 [Example 9, 4-{2-(2-Carboxy-ethyl)-3-[6-(5-methoxymethyl-biphenyl-3-yloxy)-hexyl]-phenoxy}-butyric acid]	8.71
O=C(O)CCCOc1cccc(CCCCCCOc2cc(CO)cc(-c3ccsc3)c2)c1CCC(=O)O [Example 3, 4-{2-(2-Carboxy-ethyl)-3-[6-(3-hydroxymethyl-5-thiophen-3-yl-phenoxy)-hexyl]-phenoxy}-butyric acid]	7.20
O=C(O)CCCOc1cccc(CCCCCCOc2cc(CO)cc(-c3ccc(Cl)cc3)c2)c1CCC(=O)O [Example 5, 4-{2-(2-Carboxy-ethyl)-3-[6-(4′-chloro-5-hydroxymethyl-biphenyl-3-yloxy)-hexyl]-phenoxy}-butyric acid]	7.37
CN(C)Cc1cc(OCCCCCCc2cccc(OCCCC(=O)O)c2CCC(=O)O)cc(-c2ccccc2)c1 [Example 32, 4-{2-(2-Carboxy-ethyl)-3-[6-(5-dimethylaminomethyl-biphenyl-3-yloxy)-hexyl]-phenoxy}-butyric acid]	10.00
COCc1cc(OCCCCCCc2cccc(OCCCC(=O)O)c2CCC(=O)O)cc(-c2cc(F)cc(F)c2)c1 [Example 16, 4-{2-(2-Carboxy-ethyl)-3-[6-(3′,5′-difluoro-5-methoxymethyl-biphenyl-3-yloxy)-hexyl]-phenoxy}-butyric acid]	7.83
COCc1cc(OCCCCCCc2cccc(OCCCC(=O)O)c2CCC(=O)O)cc(-c2ccc3c(c2)OCO3)c1 [Example 8, 4-[3-[6-(3-Benzo[1,3]dioxol-5-yl-5-methoxymethyl-phenoxy)-hexyl]-2-(2-carboxy-ethyl)-phenoxy]-butyric acid]	9.85
CCOCc1cc(OCCCCCCc2cccc(OCCCC(=O)O)c2CCC(=O)O)cc(-c2ccc3c(c2)OCO3)c1 [Example 25, 4-[3-[6-(3-Benzo[1,3]dioxol-5-yl-5-ethoxymethyl-phenoxy)-hexyl]-2-(2-carboxy-ethyl)-phenoxy]-butyric acid]	8.97
COCc1cc(OCCCCCCc2cccc(OCCCC(=O)O)c2CCC(=O)O)cc(-c2cccc(OC)c2)c1 [Example 19, 4-{2-(2-Carboxy-ethyl)-3-[6-(3′-methoxy-5-methoxymethyl-biphenyl-3-yloxy)-hexyl]-phenoxy}-butyric acid]	8.03
CN(C)Cc1cc(OCCCCCCc2cccc(OCCCC(=O)O)c2CCC(=O)O)cc(-c2ccsc2)c1 [Example 31, 4-{2-(2-Carboxy-ethyl)-3-[6-(3-dimethylaminomethyl-5-thiophen-3-yl-phenoxy)-hexyl]-phenoxy}-butyric acid]	9.96
COCc1cc(OCCCCCCc2cccc(OCCCC(=O)O)c2CCC(=O)O)cc(-c2ccc3c(c2)OCCO3)c1 [Example 12, 4-(2-(2-Carboxy-ethyl)-3-{6-[3-(2,3-dihydro-benzo[1,4]dioxin-6-yl)-5-methoxymethyl-phenoxy]-hexyl}-phenoxy)-butyric acid]	8.86
COCc1cc(OCCCCCCc2cccc(OCCCC(=O)O)c2CCC(=O)O)cc(-c2ccc(S(C)(=O)=O)cc2)c1 [Example 24, 4-[2-(2-Carboxy-ethyl)-3-[6-(4′-methanesulfonyl-5-methoxymethyl-biphenyl-3-yloxy)-hexyl]-phenoxy]-butyric acid]	8.17
COCc1cc(OCCCCCCc2cccc(OCCCC(=O)O)c2CCC(=O)O)cc(-c2ccc(C(F)(F)F)cc2)c1 [Example 17, 4-{2-(2-Carboxy-ethyl)-3-[6-(5-methoxymethyl-4′-trifluoromethyl-biphenyl-3-yloxy)-hexyl]-phenoxy}-butyric acid]	8.79
COCc1cc(OCCCCCCc2cccc(OCCCC(=O)O)c2CCC(=O)O)cc(-c2cncnc2)c1 [Example 22, 4-[2-(2-Carboxy-ethyl)-3-[6-(3-methoxymethyl-5-pyrimidin-5-yl-phenoxy)-hexyl]-phenoxy]-butyric acid]	6.47
O=C(O)CCCOc1cccc(CCCCCCOc2cc(CO)cc(-c3ccccc3)c2)c1CCC(=O)O [Example 2, 4-{2-(2-Carboxy-ethyl)-3-[6-(5-hydroxymethyl-biphenyl-3-yloxy)-hexyl]-phenoxy}-butyric acid]	7.61

The remaining lines, values ahead:

pIC50	Compound
9.85	CN(C)Cc1cc(OCCCCCCc2cccc(OCCCC(=O)O)c2CCC(=O)O)cc(-c2cccc(F)c2)c1 [Example 36, 4-{2-(2-Carboxy-ethyl)-3-[6-(5-dimethylaminomethyl-3′-fluoro-biphenyl-3-yloxy)-hexyl]-phenoxy}-butyric acid]
9.40	CCOc1cc(OCCCCCCc2cccc(OCCCC(=O)O)c2CCC(=O)O)cc(-c2ccsc2)c1 [Example 45, 4-[2-(2-Carboxy-ethyl)-3-[6-(3-ethoxy-5-thiophen-3-yl-phenoxy)-hexyl]-phenoxy]-butyric acid]
8.65	CN(C)Cc1cc(OCCCCCCc2cccc(OCCCC(=O)O)c2CCC(=O)O)cc(-c2ccc(S(C)(=O)=O)cc2)c1 [Example 38, 4-{2-(2-Carboxy-ethyl)-3-[6-(5-dimethylaminomethyl-4′-methanesulfonyl-biphenyl-3-yloxy)-hexyl]-phenoxy}-butyric acid]
9.38	CN(C)Cc1cc(OCCCCCCc2cccc(OCCCC(=O)O)c2CCC(=O)O)cc(-c2ccncc2)c1 [Example 40, 4-{2-(2-Carboxy-ethyl)-3-[6-(3-dimethylaminomethyl-5-pyridin-4-yl-phenoxy)-hexyl]-phenoxy}-butyric acid]
7.82	N#CCc1cc(OCCCCCCc2cccc(OCCCC(=O)O)c2CCC(=O)O)cc(-c2ccsc2)c1 [Example 41, 4-{2-(2-Carboxy-ethyl)-3-[6-(3-cyanomethyl-5-thiophen-3-yl-phenoxy)-hexyl]-phenoxy}-butyric acid]
7.49	O=C(O)CCCOc1cccc(CCCCCCOc2cc(OCC3CCCC3)cc(-c3cccc(F)c3)c2)c1CCC(=O)O [Example 63, 4-[2-(2-Carboxy-ethyl)-3-[6-(5-cyclopentylmethoxy-3′-fluoro-biphenyl-3-yloxy)-hexyl]-phenoxy]-butyric acid]
8.68	CC(=O)c1cc(OCCCCCCc2cccc(OCCCC(=O)O)c2CCC(=O)O)cc(-c2ccc3c(c2)OCCO3)c1 [Example 65]
9.80	Cc1ccc(-c2cc(CN(C)C)cc(OCCCCCCc3cccc(OCCCC(=O)O)c3CCC(=O)O)c2)cc1F [Example 35, 4-{2-(2-Carboxy-ethyl)-3-[6-(5-dimethylaminomethyl-3′-fluoro-4′-methyl-biphenyl-3-yloxy)-hexyl]-phenoxy}-butyric acid]
7.10	CCOc1cc(OCCCCCCc2cccc(OCCCC(=O)O)c2CCC(=O)O)cc(-c2cncnc2)c1 [Example 53, 4-[2-(2-Carboxy-ethyl)-3-[6-(3-ethoxy-5-pyrimidin-5-yl-phenoxy)-hexyl]-phenoxy]-butyric acid]
9.66	CCOc1cc(OCCCCCCc2cccc(OCCCC(=O)O)c2CCC(=O)O)cc(-c2ccc3c(c2)OCO3)c1 [Example 43, 4-[3-[6-(3-Benzo[1,3]dioxol-5-yl-5-ethoxy-phenoxy)-hexyl]-2-(2-carboxy-ethyl)-phenoxy]-butyric acid]
9.80	O=C(O)CCCOc1cccc(CCCCCCOc2cc(C(=O)C3CC3)cc(-c3ccc4c(c3)OCO4)c2)c1CCC(=O)O [Example 72, 4-[3-[6-(3-Benzo[1,3]dioxol-5-yl-5-cyclopropanecarbonyl-phenoxy)-hexyl]-2-(2-carboxy-ethyl)-phenoxy]-butyric acid]
8.92	CCOc1cc(OCCCCCCc2cccc(OCCCC(=O)O)c2CCC(=O)O)cc(-c2ccc3c(c2)OC(F)(F)O3)c1 [Example 57, 4-(2-(2-Carboxy-ethyl)-3-{6-[3-(2,2-difluoro-benzo[1,3]dioxol-5-yl)-5-ethoxy-phenoxy]-hexyl}-phenoxy)-butyric acid]
8.16	CCOc1cc(OCCCCCCc2cccc(OCCCC(=O)O)c2CCC(=O)O)cc(-c2ccnc(Cl)c2)c1 [Example 52, 4-[2-(2-Carboxy-ethyl)-3-[6-[3-(2-chloro-pyridin-4-yl)-5-ethoxy-phenoxy]-hexyl]-phenoxy]-butyric acid]
9.05	CC(=O)c1cc(OCCCCCCc2cccc(OCCCC(=O)O)c2CCC(=O)O)cc(-c2ccc3c(c2)OC(F)(F)O3)c1 [Example 69, 4-[3-{6-[3-Acetyl-5-(2,2-difluoro-benzo[1,3]dioxol-5-yl)-phenoxy]-hexyl}-2-(2-carboxy-ethyl)-phenoxy]-butyric acid]
8.63	CCOc1cc(OCCCCCCc2cccc(OCCCC(=O)O)c2CCC(=O)O)cc(-c2cccc(F)c2)c1 [Example 47, 4-[2-(2-Carboxy-ethyl)-3-[6-(5-ethoxy-3′-fluoro-biphenyl-3-yloxy)-hexyl]-phenoxy]-butyric acid]

Reference: patent US8088936B2, “Leukotriene B4 inhibitors” (Hoffman-La Roche Inc., priority 2009, dated 2012)
